Test results from patent US9598401B2, “Substituted heteroaryl compounds and methods of use thereof” (Sunshine Lake Pharma Co., Ltd., priority 2013, dated 2017).
Like-named read-outs stand apart in the source and are kept apart here.

Experiments:
serotonin transporter = serotonin transporter (Rattus norvegicus (Rat), UniProt P31652); test: Inhibitory effect on [3H]5-HT uptake in rat synaptosome; assay type: biochemical; settings: rat brain synaptosomes, 37° C., 15 minutes, 0.1 μCi [3H]5-HT
Experimental: The synaptosomes (150 μg) prepared from the rat brain were incubated at 37° C. for 15 minutes with 0.1 μCi [^3H]5-HT in the absence or presence of the test compound or the reference compound in a buffer solution containing 106.2 mM NaCl, 4.5 mM KCl, 2.25 mM MgSO4, 1.08 mM NaH2PO4, 22.5 mM NaHCO3, 9.9 mM glucose, 9 μM EGTA and 45 μM ascorbic acid (pH 7.4).
Inhibition of serotonin transporter in rat synaptosome was measured by the concentrations of [^3H]5-HT.

5-HT1A receptor = 5-HT1A receptor (Homo sapiens (Human), UniProt P08908); test: Affinity for human 5-HT1A receptor ([3H]8-OH-DPAT binding, HEK-293 cell homogenates);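 note: Filter-retained radioactivity counted by scintillation, non-specific binding defined with 10 µM 8-OH-DPAT, Ki derived from percent inhibition of specific radioligand binding versus control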
5-HT1A receptor, sequence (P08908 whole entry): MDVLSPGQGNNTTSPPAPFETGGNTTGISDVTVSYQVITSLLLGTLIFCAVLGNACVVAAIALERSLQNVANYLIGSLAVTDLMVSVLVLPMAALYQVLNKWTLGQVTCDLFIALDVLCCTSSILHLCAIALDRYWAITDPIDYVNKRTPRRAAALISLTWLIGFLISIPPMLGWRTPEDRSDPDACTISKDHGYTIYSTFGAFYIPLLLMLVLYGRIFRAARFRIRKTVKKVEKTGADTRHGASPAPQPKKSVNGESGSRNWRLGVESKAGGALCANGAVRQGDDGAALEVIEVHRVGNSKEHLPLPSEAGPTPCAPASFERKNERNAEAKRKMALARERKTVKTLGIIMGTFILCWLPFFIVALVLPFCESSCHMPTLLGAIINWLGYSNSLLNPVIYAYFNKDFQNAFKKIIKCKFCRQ
Experimental: The non-specific binding value was determined by incubating the same mixture in the presence of 10 μM 8-OH-DPAT, which was used as the standard reference compound and tested in each experiment at several concentrations to obtain a competition curve.
Following the incubation, the samples were filtered rapidly under vacuum through glass fiber filter (GF/B, Packard) presoaked with 0.3% PEI and rinsed several times with ice-cold 50 mM Tris-HCl using a 96-sample cell harvester (Unifilter, Packard). The filters were dried and the retained radioactivity was measured in a scintillation counter (Topcount, Packard) using a scintillation cocktail (Microscint 0, Packard). The experimental results were expressed as a percent inhibition of the control radioligand specific binding, and Ki was the inhibition constant.

[1] = read-out: Ki, binding affinity for 5-HT1A receptor, 0.3 nM [3H]8-OH-DPAT, human HEK-293 cell homogenates, 22° C., 60 minutes

serotonin transporter, sequence (P31652 whole entry): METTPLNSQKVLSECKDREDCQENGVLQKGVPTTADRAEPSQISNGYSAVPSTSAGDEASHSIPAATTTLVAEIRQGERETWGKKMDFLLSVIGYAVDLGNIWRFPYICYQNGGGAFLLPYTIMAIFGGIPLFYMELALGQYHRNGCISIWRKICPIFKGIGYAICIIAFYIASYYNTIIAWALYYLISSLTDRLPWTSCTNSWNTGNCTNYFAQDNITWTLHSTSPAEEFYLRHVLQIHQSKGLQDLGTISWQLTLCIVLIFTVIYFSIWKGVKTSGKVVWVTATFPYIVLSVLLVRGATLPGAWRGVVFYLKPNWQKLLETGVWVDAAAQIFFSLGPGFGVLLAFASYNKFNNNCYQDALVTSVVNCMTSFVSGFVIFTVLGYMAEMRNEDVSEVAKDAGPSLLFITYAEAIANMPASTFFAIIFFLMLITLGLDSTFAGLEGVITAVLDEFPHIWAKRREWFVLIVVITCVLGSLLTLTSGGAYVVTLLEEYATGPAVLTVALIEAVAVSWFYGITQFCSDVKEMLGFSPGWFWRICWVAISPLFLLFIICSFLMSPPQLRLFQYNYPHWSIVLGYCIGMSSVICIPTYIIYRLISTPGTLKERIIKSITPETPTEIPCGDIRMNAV

Row | Structure (SMILES) | IC50 (serotonin transporter) | Ki (5-HT1A receptor; [1]) | Ki (5-HT1A receptor)
1 | Cc1cc(C)nc(N2CCN(CCCCc3c[nH]c4ccc(F)cc34)CC2)n1 [Example 14, 3-(4-(4-(4,6-Dimethylpyrimidin-2-yl)piperazin-1-yl)butyl)-5-fluoro-1H-indole] | 12 nM | 1.7 nM | 
2 | COc1cc(C)nc(N2CCN(CCCCc3c[nH]c4ccc(C#N)cc34)CC2)n1 [Example 21, 3-(4-(4-(4-Methoxy-6-methylpyrimidin-2-yl)piperazin-1-yl)butyl)-1H-indole-5-carbonitrile] | 2.6 nM | 0.65 nM | 
3 | COc1cc(OC)nc(N2CCN(CCCc3c[nH]c4ccc(Cl)cc34)CC2)n1 [Example 8, 5-Chloro-3-(3-(4-(4,6-dimethoxypyrimidin-2-yl)piperazin-1-yl)propyl)-1H-indole] | 81 nM | 2 nM | 
4 | COc1cc(OC)nc(N2CCN(CCCc3c[nH]c4ccccc34)CC2)n1 [Example 6, 3-(3-(4-(4,6-Dimethoxypyrimidin-2-yl)piperazin-1-yl)propyl)-1H-indole] | 24 nM | 4.8 nM | 
5 | CC1CN(c2nccc(C(N)=O)n2)CCN1CCCCc1c[nH]c2ccc(C#N)cc12 (centres unmarked) [Example 50, 2-(4-(4-(5-Cyano-1H-indol-3-yl)butyl)-3-methylpiperazin-1-yl)pyrimidine-4-carboxamide] | 0.36 nM |  | 
6 | N#Cc1ccc2[nH]cc(CCCCN3CCN(c4ncc(F)cn4)CC3)c2c1 [Example 35, 3-(4-(4-(5-Fluoropyrimidin-2-yl)piperazin-1-yl)butyl)-1H-indole-5-carbonitrile] | 4.7 nM |  | 
7 | COc1ccc2[nH]cc(CCCCN3CCN(c4nc(C)cc(C)n4)CC3)c2c1 [Example 12, 3-(4-(4-(4,6-Dimethylpyrimidin-2-yl)piperazin-1-yl)butyl)-5-methoxy-1H-indole] |  | 1.1 nM | 
8 | N#Cc1ccnc(N2CCN(CCCCc3c[nH]c4ccc(F)cc34)CC2)n1 [Example 23, 2-(4-(4-(5-Fluoro-1H-indol-3-yl)butyl)piperazin-1-yl)pyrimidine-4-carbonitrile] | 6.1 nM | 18 nM | 
9 | Fc1ccc2[nH]cc(CCCCN3CCN(c4nccc(C(F)(F)F)n4)CC3)c2c1 [Example 31, 5-Fluoro-3-(4-(4-(4-(trifluoromethyl)pyrimidin-2-yl)piperazin-1-yl)butyl)-1H-indole] | 16 nM | 2 nM | 
10 | COc1ccc2[nH]cc(CCCCN3CCN(c4nc(OC)cc(OC)n4)CC3)c2c1 [Example 2, 3-(4-(4-(4,6-Dimethoxypyrimidin-2-yl)piperazin-1-yl)butyl)-5-methoxy-1H-indole] |  | 1.4 nM | 
11 | N#Cc1ccc2[nH]cc(CCCCN3CCN(c4nccc(C(F)(F)F)n4)CC3)c2c1 [Example 32, 3-(4-(4-(4-(Trifluoromethyl)pyrimidin-2-yl)piperazin-1-yl)butyl)-1H-indole-5-carbonitrile] | 10 nM | 0.7 nM | 
12 | N#Cc1ccc2[nH]cc(CCCN3CCN(c4ncc(F)cn4)CC3)c2c1 [Example 36, 3-(3-(4-(5-Fluoropyrimidin-2-yl)piperazin-1-yl)propyl)-1H-indole-5-carbonitrile] | 8.2 nM |  | 
13 | N#Cc1ccc2[nH]cc(CCCCN3CCN(c4nccc(C#N)n4)CC3)c2c1 [Example 24, 3-(4-(4-(4-Cyanopyrimidin-2-yl)piperazin-1-yl)butyl)-1H-indole-5-carbonitrile] | 1.9 nM | 6.2 nM | 
14 | CC1CN(c2nccc(C(N)=O)n2)CCN1CCCc1c[nH]c2ccc(C#N)cc12 (centres unmarked) [Example 49, 2-(4-(3-(5-Cyano-1H-indol-3-yl)propyl)-3-methylpiperazin-1-yl)pyrimidine-4-carboxamide] | 0.28 nM |  | 
15 | COc1cc(C)nc(N2CCN(CCCc3c[nH]c4ccc(C#N)cc34)CC2)n1 [Example 22, 3-(3-(4-(4-Methoxy-6-methylpyrimidin-2-yl)piperazin-1-yl)propyl)-1H-indole-5-carbonitrile] | 2.7 nM |  | 1.5 nM
16 | N#Cc1ccnc(N2CCN(CCCc3c[nH]c4ccc(F)cc34)CC2)n1 [Example 25, 2-(4-(3-(5-Fluoro-1H-indol-3-yl)propyl)piperazin-1-yl)pyrimidine-4-carbonitrile] | 4.5 nM | 4 nM | 
17 | CCOC(=O)c1sc(N2CCN(CCCCc3c[nH]c4ccc(C#N)cc34)CC2)nc1C [Example 39, Ethyl 2-(4-(4-(5-cyano-1H-indol-3-yl)butyl)piperazin-1-yl)-4-methylthiazole-5-carboxylate] | 2.9 nM | 0.79 nM | 
18 | Fc1ccc2[nH]cc(CCCN3CCN(c4nccc(C(F)(F)F)n4)CC3)c2c1 [Example 33, 5-Fluoro-3-(3-(4-(4-(trifluoromethyl)pyrimidin-2-yl)piperazin-1-yl)propyl)-1H-indole] | 11 nM | 1 nM | 
19 | Cc1cc(C)nc(N2CCN(CCCc3c[nH]c4ccc(Cl)cc34)CC2)n1 [Example 18, 5-Chloro-3-(3-(4-(4,6-dimethylpyrimidin-2-yl)piperazin-1-yl)propyl)-1H-indole] | 31 nM | 0.71 nM | 
20 | Cc1cc(C)nc(N2CCN(CCCc3c[nH]c4ccc(F)cc34)CC2)n1 [Example 19, 3-(3-(4-(4,6-Dimethylpyrimidin-2-yl)piperazin-1-yl)propyl)-5-fluoro-1H-indole] | 7.9 nM | 1.4 nM | 
21 | Cc1cc(C)nc(N2CCN(CCCCc3c[nH]c4ccc(C#N)cc34)CC2)n1 [Example 15, 3-(4-(4-(4,6-Dimethylpyrimidin-2-yl)piperazin-1-yl)butyl)-1H-indole-5-carbonitrile] | 6.9 nM | 2.9 nM | 
22 | COc1ccc2[nH]cc(CCCN3CCN(c4nc(OC)cc(OC)n4)CC3)c2c1 [Example 7, 3-(3-(4-(4,6-Dimethoxypyrimidin-2-yl)piperazin-1-yl)propyl)-5-methoxy-1H-indole] |  | 0.19 nM | 
23 | COc1ccc2[nH]cc(CCCN3CCN(c4nc(C)cc(C)n4)CC3)c2c1 [Example 17, 3-(3-(4-(4,6-Dimethylpyrimidin-2-yl)piperazin-1-yl)propyl)-5-methoxy-1H-indole] |  | 0.29 nM | 
24 | Cc1cc(C)nc(N2CCN(CCCCc3c[nH]c4ccccc34)CC2)n1 [Example 11, 3-(4-(4-(4,6-Dimethylpyrimidin-2-yl)piperazin-1-yl)butyl)-1H-indole] | 82 nM | 1.1 nM | 
25 | COc1cc(OC)nc(N2CCN(CCCc3c[nH]c4ccc(F)cc34)CC2)n1 [Example 9, 3-(3-(4-(4,6-Dimethoxypyrimidin-2-yl)piperazin-1-yl)propyl)-5-fluoro-1H-indole] | 4.4 nM | 3.4 nM | 
26 | Cc1cc(C)nc(N2CCN(CCCCc3c[nH]c4ccc(Cl)cc34)CC2)n1 [Example 13, 5-Chloro-3-(4-(4-(4,6-dimethylpyrimidin-2-yl)piperazin-1-yl)butyl)-1H-indole] |  | 1.8 nM | 
27 | COc1cc(OC)nc(N2CCN(CCCCc3c[nH]c4ccc(C#N)cc34)CC2)n1 [Example 5, 3-(4-(4-(4,6-Dimethoxypyrimidin-2-yl)piperazin-1-yl)butyl)-1H-indole-5-carbonitrile] | 11 nM | 2.3 nM | 
28 | COc1cc(OC)nc(N2CCN(CCCCc3c[nH]c4ccc(Cl)cc34)CC2)n1 [Example 3, 5-Chloro-3-(4-(4-(4,6-dimethoxypyrimidin-2-yl)piperazin-1-yl)butyl)-1H-indole] |  | 1.1 nM | 
29 | COc1cc(OC)nc(N2CCN(CCCCc3c[nH]c4ccccc34)CC2)n1 [Example 1, 3-(4-(4-(4,6-Dimethoxypyrimidin-2-yl)piperazin-1-yl)butyl)-1H-indole] |  | 3.3 nM | 
